# Data as given in patent publication US7285556B2, “Thienopyrimidine-based inhibitors of the src family” (Board of Regents, The University of Texas Systems, priority 2000, dated 2007).
# Read-outs that look alike come from different tables or passages of the source.
# Assays:
# [1] = molecular target: FGF receptor (FGFr) (Homo sapiens, UniProt P11362); assay: FGFr tyrosine kinase activity, poly E4Y and 32P-ATP; type: biochemical
# Description: Recombinant human Src was expressed using the baculovirus-insect cell system and purified as published (Budde et al., 1993 and 2000). Recombinant Csk and the FGF receptor (FGFr) were expressed as glutathione-S-transferase fusion proteins using the pGEX expression vector and E. coli, and purified as described (Sun & Budde, 1995). The tyrosine kinase activity of Src, Csk and FGFr was determined using poly E4Y and ^32P-ATP. Briefly, enzymes were assayed in a reaction mixture consisting of 0.15 M EPPS-NaOH (pH 8.0) with 6 mM MgCl2, 0.2 mM γ^32P-ATP (0.2-0.4 mCi/μmol), 10% glycerol, 0.1% Triton X-100, and poly E4Y. Poly E4Y is a synthetic peptide whose phosphorylation is measured in this assay by the addition of the radioactively labeled phosphate from the ATP (Budde et al., 1995). […] When ATP was varied (0, 50, 100 and 250 μM), poly E4Y was kept constant at 150 μg/ml. […] From this screening, the thienopyrimidine-based scaffold was identified as one of the chemical structures to pursue. […] These analogues were screened against Src, Csk and FGFr (Table 2, Table 3, and Table 4).
# [2] = molecular target: T1, Csk (Homo sapiens, UniProt P41240); assay: Csk tyrosine kinase activity, poly E4Y and 32P-ATP; type: biochemical
# T1 construct: GST (glutathione-S-transferase) (N); made in house; host or cells: E. coli (pGEX vector)
# Outline: (§1)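 Recombinant GST-Csk (E. coli) or baculovirus-expressed human Src assayed on poly E4Y in 0.15 M EPPS-NaOH pH 8.0, 6 mM MgCl2, 0.2 mM γ32P-ATP, 10% glycerol, 0.1% Triton X-100. Read-out is 32P incorporation into poly E4Y; for ATP variation (0–250 μM), poly E4Y held at 150 μg/ml.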
# [3] = molecular target: T2, Recombinant human Src (Homo sapiens, UniProt P12931); assay: Src tyrosine kinase activity, poly E4Y and 32P-ATP; type: biochemical
# T2 construct: made in house; host or cells: baculovirus-insect cell system
# Outline: as §1
# [4] = molecular target: T3, N12 neuronal Src variant (Homo sapiens, UniProt P12931); assay: Testing against neuronal Src variant N12; type: biochemical; conditions: Table 5
# T3 construct: made in house
# Description: (§2) The tyrosine kinase activity of Src, Csk and FGFr was determined using poly E4Y and ^32P-ATP. Briefly, enzymes were assayed in a reaction mixture consisting of 0.15 M EPPS-NaOH (pH 8.0) with 6 mM MgCl2, 0.2 mM γ^32P-ATP (0.2-0.4 mCi/μmol), 10% glycerol, 0.1% Triton X-100, and poly E4Y. Poly E4Y is a synthetic peptide whose phosphorylation is measured in this assay by the addition of the radioactively labeled phosphate from the ATP (Budde et al., 1995). […] When ATP was varied (0, 50, 100 and 250 μM), poly E4Y was kept constant at 150 μg/ml.
# (§3) Thienopyrimidine-based compounds were also tested against neuronal Src variants (Table 5).
# [5] = molecular target: T4, N23 neuronal Src variant (Homo sapiens, UniProt P12931); assay: Testing against neuronal Src variant N23; type: biochemical; conditions: Table 5
# T4 construct: made in house
# Description: as §2, §3
# [6] = tested on: colon adenocarcinoma cell line, HT29; assay: MTT reduction assay, in vitro drug cytotoxicity; type: cell-based; conditions: Homo sapiens, HT-29, 72 hours incubation, read-out: IC50, HT-29 cells
# Description: Compounds synthesized using the methods described above were tested using a standard MTT assay (Green et al., 1984) against a colon adenocarcinoma cell line, HT29. A human ovarian cancer cell line, SKOv-3 may also be used. The use of an MTT assay using these cells is recognized as an accepted assay for anti-tumor activity by those in the field. The in vitro activity of Src inhibitors of the present invention against diseases other than cancer may be assayed by methods known to those of skill in the art.
# In vitro drug cytotoxicities against a colon adenocarcinoma cell line, HT29 was assessed by using the MTT reduction assay, as previously reported (Green et al., 1984). A human ovarian cancer cell line, SKOv-3 may also be used. The MTT dye was obtained from Sigma Chemical Co. (St. Louis, Mo.). The drugs were dissolved in DMSO:PEG 300 (1:1). Neither DMSO or PEG 300 are toxic to cells at a concentration of 31.6 μg/ml. […] The optical density of each well was then measured with a microplate spectrophotometer at a wavelength of 570 nm with a reference cell at 650 nm. The percent cell viability was calculated by the following equation: % cell viability=(OD treated wells/OD control wells)×100
# where OD is the mean optical density from four determinations. The percent cell viability values were plotted against the drug concentrations used, and the IC50 was calculated from the curve.
# [7] = tested on: osteoclastic bone resorption; conditions: Rodan and Martin, 2000; cited from earlier work
# [8] = Table 4, NI = no inhibition upto 50 ug/mL
# [9] = screening assay, 50 μg/ml poly E4Y, 0.2 mM 32P-ATP
# [10] = Table 2, read-out: Src IC50 (especially good inhibitors of Src)
# [11] = Table 5, N6 = Src, read-out: N6(Src) IC50
# [12] = read-out: IC50 (preferred compounds for treatment of Src family-related disease)
# FGF receptor (FGFr), sequence (P11362 398-822): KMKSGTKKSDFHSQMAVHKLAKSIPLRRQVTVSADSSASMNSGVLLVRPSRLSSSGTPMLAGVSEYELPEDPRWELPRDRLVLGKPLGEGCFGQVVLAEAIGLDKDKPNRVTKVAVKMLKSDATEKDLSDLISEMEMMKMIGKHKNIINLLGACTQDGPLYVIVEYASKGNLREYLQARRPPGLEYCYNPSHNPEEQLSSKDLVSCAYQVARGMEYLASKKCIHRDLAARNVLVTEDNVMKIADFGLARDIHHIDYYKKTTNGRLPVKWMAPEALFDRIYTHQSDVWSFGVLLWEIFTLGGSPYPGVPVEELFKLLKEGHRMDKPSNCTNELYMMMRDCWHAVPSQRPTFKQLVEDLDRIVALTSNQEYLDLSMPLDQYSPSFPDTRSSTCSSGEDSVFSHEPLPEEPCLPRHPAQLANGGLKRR
# T1 sequence (P41240 whole entry, species assumed): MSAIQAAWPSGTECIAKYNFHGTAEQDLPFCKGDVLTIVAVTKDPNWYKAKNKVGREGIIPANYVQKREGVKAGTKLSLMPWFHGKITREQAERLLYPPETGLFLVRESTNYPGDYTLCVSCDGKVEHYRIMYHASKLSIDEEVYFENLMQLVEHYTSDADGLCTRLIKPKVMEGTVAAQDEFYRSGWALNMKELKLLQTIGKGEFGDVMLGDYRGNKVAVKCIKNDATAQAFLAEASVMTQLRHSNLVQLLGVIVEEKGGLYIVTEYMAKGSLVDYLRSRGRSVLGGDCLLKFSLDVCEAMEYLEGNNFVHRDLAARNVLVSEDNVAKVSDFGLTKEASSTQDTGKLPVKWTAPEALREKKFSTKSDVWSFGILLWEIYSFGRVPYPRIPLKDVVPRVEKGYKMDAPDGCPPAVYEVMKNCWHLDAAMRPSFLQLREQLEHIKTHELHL
Compound,"FGFr IC50 [1, 8]","IC50 ([3]; Table 4, read-out: Src IC50)",IC50 [4],IC50 [5],"IC50 [3, 10]","IC50 [3, 11]","IC50 [3, 12]",other results
"1-Hydroxy-1-methyl-1,1-di-[3-hydroxy-4-methoxybenzaldehyde(7-methylthieno[3,2-d]pyrimidin-4-yl)hydrazone]methane [Compound 502]",NI (NI = no inhibition upto 50 ug/mL),8700 nM,–,–,–,–,–,"Csk IC50 [2, 8]: NI (NI = no inhibition upto 50 ug/mL)"
"1-Hydroxy-1-methyl-1,1-di-[4-carboxybenzaldehyde(7-methylthieno[3,2-d]pyrimidin-4-yl)hydrazone]methane [Compound 500]",NI (NI = no inhibition upto 50 ug/mL),5300 nM,–,–,–,–,–,"IC50 [2, 8]: 57000 nM"
"Cc1csc2c(NN=Cc3ccc(C(F)(F)F)cc3)ncnc12 [Compound 9, 4-Trifluoromethylbenzaldehyde(7-methylthieno[3,2-d]pyrimidin-4-yl)hydrazone]",–,–,–,–,–,–,–,"FGFr IC50 [1, 9]: NI (NI = no inhibition up to 50 ug/mL); Csk IC50 [2, 9]: NI (NI = no inhibition up to 50 ug/mL)"
"Cc1csc2c(NN=Cc3cccnc3)ncnc12 [Compound 27, 3-Pyridinecarboxaldehyde(7-methylthieno[3,2-d]pyrimidin-4-yl)hydrazone]",–,–,590 nM,280 nM,≤ 2000 nM,370 nM,< 2000 nM,IC50 [6]: 13000 nM
"Cc1csc2c(NN=Cc3cccs3)ncnc12 [Compound 29, 2-Thiophenecarboxaldehyde(7-methylthieno[3,2-d]pyrimidin-4-yl)hydrazone]",–,–,1170 nM,840 nM,≤ 2000 nM,950 nM,< 2000 nM,"IC50 [2, 9]: > 182000 nM"
"COc1ccc(C=NNc2ncnc3c(C)csc23)cc1O [Compound 51, 3-Hydroxy-4-methoxybenzaldehyde(7-methylthieno[3,2-d]pyrimidin-4-yl)hydrazone]",–,–,1750 nM,510 nM,≤ 2000 nM,510 nM,< 2000 nM,–
"Cc1csc2c(NN=Cc3cccc(Br)c3)ncnc12 [Compound 57, 3-Bromobenzaldehyde(7-methylthieno[3,2-d]pyrimidin-4-yl)hydrazone]",–,–,–,–,–,–,–,"FGFr IC50 [1, 9]: NI (NI = no inhibition up to 50 ug/mL); Csk IC50 [2, 9]: NI (NI = no inhibition up to 50 ug/mL)"
"C(=NNc1ncnc2cc(-c3ccccc3)sc12)c1cccnc1 [Compound 199, 3-Pyridinecarboxaldehyde(6-phenylthieno[3,2-d]pyrimidin-4-yl)hydrazone]",–,–,230 nM,120 nM,≤ 2000 nM,150 nM,< 2000 nM,"IC50 [2, 9]: > 151000 nM"
"C(=NNc1ncnc2cc(-c3ccsc3)sc12)c1cccnc1 [Compound 223, 3-Pyridinecarboxaldehyde(6-(3-thienyl)thieno[3,2-d]pyrimidin-4-yl)hydrazone]",–,–,–,–,–,–,–,"FGFr IC50 [1, 9]: NI (NI = no inhibition up to 50 ug/mL); Csk IC50 [2, 9]: NI (NI = no inhibition up to 50 ug/mL)"
CCO.Cc1csc2c(NN=Cc3cccnc3)ncnc12.Cc1csc2c(NN=Cc3cccnc3)ncnc12 [Compound 499],NI (NI = no inhibition upto 50 ug/mL),8600 nM,–,–,–,–,–,"Csk IC50 [2, 8]: NI (NI = no inhibition upto 50 ug/mL)"
CCO.Cc1csc2c(NN=Cc3cccs3)ncnc12.Cc1csc2c(NN=Cc3cccs3)ncnc12 [Compound 501],NI (NI = no inhibition upto 50 ug/mL),10700 nM,–,–,–,–,–,"Csk IC50 [2, 8]: NI (NI = no inhibition upto 50 ug/mL)"
CO[C@H]1[C@@H](OC)C[C@H](C)[C@@H](OC)C2=CC(=O)C=C(NC(=O)/C(C)=C/C=C\[C@H](OC)[C@@H](OC(N)=O)/C(C)=C/[C@@H]1C)C2=O [Herbimycin A],–,–,–,–,–,–,–,osteoclastic bone resorption in vivo [7]: inhibits osteoclastic bone resorption
